Assays:
[1] = biological target: Adenosine Receptor A2A (ADORA2A) (Homo sapiens, UniProt P29274); test: SAFETYscan GPCR Calcium Flux; type: cell-based; conditions: for MCA-13 Max. Responce: 10 μM
[2] = biological target: Adrenergic Receptor β2 (ADRB2) (Homo sapiens, UniProt P07550); test: SAFETYscan GPCR cAMP; type: cell-based
[3] = biological target: Muscarinic acetylcholine Receptor M1 (CHRM1) (Homo sapiens, UniProt P11229); test: cell-based; conditions: Calcium Flux, read-out: RC50 (the source's name)
[4] = biological target: T1, Muscarinic acetylcholine Receptor M2 (CHRM2) (Homo sapiens, UniProt P08172); test: SAFETYscan GPCR cAMP; type: cell-based
T1 construct: host or cells: cAMP Hunter cell lines

[5] = biological target: T2, Cannabinoid Receptor 2 (CNR2) (Homo sapiens, UniProt P34972); test: SAFETYscan GPCR cAMP; type: cell-based
T2 construct: host or cells: cAMP Hunter cell lines

[6] = biological target: Histamine Receptor H1 (HRH1) (Homo sapiens, UniProt P35367); test: SAFETYscan GPCR Calcium Flux; type: cell-based; conditions: read-out: RC50 (the source's name)
[7] = biological target: T3, 5-Hydroxy tryptamine (Serotonin) Receptor 1B (HTR1B) (Homo sapiens, UniProt P28222); test: SAFETYscan GPCR cAMP; type: cell-based
T3 construct: host or cells: cAMP Hunter cell lines
T3 sequence (P28222 whole entry): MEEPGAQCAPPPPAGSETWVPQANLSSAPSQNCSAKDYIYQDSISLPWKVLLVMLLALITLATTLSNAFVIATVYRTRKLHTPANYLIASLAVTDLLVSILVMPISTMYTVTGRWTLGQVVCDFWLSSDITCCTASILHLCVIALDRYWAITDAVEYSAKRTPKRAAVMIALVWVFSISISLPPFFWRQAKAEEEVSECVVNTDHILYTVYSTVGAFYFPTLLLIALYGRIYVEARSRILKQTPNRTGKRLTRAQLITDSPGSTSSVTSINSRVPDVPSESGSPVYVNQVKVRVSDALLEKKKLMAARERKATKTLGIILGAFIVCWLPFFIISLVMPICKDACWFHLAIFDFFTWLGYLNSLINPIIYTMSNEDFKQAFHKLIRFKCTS

[8] = biological target: T4, Opioid Receptor Kappa 1 (OPRK1) (Homo sapiens, UniProt P41145); test: SAFETYscan GPCR cAMP; type: cell-based
T4 construct: host or cells: cAMP Hunter cell lines

[9] = biological target: T5, 5-Hydroxy-tryptamine (Serotonin) Receptor 3A (HTR3A) (Homo sapiens, UniProt P46098); test: SAFETYscan Ion channel assay; type: cell-based
T5 construct: host or cells: unnamed DiscoverX cell line

[10] = biological target: Kv7.1/KCNE Potassium voltage-gated channel (KvLQT1/minK) (Homo sapiens, UniProt P51787); test: SAFETYscan Ion channel assay; type: cell-based; conditions: read-out: RC50 (the source's name)
[11] = biological target: T6, N-methyl-D-aspartate (NMDA) Glutamate Receptor 1A/2B (NMDAR (1A/2B)) (Homo sapiens, UniProt Q05586+Q13224); test: SAFETYscan Ion channel assay; type: cell-based
T6 construct: host or cells: unnamed DiscoverX cell line
T6 sequence (Q13224 27-1484, other chains not shown): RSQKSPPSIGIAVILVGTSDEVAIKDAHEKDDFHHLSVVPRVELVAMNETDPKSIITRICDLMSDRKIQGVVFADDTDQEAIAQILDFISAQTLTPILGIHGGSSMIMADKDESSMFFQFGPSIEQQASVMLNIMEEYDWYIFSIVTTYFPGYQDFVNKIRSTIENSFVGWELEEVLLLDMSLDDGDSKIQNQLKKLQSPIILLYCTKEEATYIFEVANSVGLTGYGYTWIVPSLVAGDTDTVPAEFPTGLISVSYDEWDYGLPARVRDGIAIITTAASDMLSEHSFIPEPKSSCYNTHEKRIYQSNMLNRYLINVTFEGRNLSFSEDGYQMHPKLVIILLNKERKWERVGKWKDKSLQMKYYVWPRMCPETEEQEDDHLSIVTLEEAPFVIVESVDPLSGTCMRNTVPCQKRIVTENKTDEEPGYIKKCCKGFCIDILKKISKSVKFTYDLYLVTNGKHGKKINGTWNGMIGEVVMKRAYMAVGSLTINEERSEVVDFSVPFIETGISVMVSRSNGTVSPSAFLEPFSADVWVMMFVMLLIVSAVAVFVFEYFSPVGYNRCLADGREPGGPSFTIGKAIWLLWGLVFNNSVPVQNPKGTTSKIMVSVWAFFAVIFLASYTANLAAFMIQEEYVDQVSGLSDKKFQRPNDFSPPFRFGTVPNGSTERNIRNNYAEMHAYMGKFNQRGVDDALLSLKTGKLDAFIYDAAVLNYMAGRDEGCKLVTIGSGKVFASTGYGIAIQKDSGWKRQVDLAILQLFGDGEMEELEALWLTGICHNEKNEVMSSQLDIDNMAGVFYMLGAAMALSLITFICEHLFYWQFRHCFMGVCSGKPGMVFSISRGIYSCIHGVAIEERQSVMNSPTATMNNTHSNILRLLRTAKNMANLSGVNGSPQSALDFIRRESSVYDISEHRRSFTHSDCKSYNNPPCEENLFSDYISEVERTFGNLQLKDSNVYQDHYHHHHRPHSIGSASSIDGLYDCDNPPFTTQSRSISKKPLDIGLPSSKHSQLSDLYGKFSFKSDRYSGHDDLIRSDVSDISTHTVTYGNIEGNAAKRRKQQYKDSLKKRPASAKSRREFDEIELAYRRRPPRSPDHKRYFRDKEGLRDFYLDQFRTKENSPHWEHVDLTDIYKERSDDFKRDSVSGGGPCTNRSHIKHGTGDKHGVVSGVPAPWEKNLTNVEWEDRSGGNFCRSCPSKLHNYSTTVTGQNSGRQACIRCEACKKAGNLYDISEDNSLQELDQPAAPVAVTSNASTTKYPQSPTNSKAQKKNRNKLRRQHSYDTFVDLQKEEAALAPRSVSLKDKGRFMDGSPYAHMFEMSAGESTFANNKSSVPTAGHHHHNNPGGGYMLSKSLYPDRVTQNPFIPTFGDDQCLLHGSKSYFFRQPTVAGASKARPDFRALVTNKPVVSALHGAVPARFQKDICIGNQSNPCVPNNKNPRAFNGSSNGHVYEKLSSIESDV

[12] = biological target: T7, Insulin Receptor (tyrosine kinase) (INSR) (Homo sapiens, UniProt P06213); test: SAFETYscan KINOMEscan binding assay; conditions: Inhibitor
T7 construct: host or cells: E. coli BL21-derived host (T7 phage) or HEK-293
T7 sequence (P06213 28-1382): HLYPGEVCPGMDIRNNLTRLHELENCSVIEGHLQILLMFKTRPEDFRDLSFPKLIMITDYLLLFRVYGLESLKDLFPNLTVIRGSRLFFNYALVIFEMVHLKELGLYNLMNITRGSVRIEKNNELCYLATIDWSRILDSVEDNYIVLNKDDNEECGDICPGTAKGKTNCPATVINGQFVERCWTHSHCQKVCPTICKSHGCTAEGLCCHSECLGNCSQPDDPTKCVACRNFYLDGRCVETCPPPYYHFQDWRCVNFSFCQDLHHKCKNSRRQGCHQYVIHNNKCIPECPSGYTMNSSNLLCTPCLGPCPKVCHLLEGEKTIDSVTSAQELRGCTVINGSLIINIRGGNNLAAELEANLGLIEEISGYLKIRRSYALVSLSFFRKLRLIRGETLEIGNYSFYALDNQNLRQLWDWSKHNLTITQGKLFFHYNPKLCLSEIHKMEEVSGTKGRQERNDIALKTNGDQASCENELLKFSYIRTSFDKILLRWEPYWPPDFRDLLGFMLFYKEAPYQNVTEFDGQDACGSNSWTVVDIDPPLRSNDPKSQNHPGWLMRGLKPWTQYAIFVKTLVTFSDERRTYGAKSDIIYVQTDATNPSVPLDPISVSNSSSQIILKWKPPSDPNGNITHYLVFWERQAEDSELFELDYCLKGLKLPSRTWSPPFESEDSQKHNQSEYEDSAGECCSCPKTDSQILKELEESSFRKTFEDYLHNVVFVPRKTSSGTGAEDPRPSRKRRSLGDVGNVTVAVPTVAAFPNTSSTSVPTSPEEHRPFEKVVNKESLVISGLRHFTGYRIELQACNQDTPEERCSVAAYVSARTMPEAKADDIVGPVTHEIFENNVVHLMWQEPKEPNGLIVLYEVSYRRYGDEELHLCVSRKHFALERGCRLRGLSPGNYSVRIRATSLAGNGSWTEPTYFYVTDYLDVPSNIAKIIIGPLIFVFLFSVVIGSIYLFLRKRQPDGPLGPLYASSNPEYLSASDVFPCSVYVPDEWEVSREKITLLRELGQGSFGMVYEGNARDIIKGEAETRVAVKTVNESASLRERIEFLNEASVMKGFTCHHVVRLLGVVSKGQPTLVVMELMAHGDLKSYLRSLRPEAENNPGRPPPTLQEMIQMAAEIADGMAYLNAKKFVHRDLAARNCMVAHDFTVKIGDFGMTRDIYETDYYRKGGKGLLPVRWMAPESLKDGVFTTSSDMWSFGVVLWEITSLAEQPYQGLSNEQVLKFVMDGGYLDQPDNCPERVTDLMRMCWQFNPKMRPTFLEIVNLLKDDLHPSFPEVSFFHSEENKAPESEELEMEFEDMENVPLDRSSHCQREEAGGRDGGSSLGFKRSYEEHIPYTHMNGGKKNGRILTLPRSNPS

[13] = biological target: T8, Rho Associated Coiled-Coil Containing Protein Kinase 1 (serine-threonine kinase) (ROCK1) (Homo sapiens, UniProt Q13464); test: SAFETYscan KINOMEscan binding assay; conditions: Inhibitor
T8 construct: host or cells: E. coli BL21-derived host (T7 phage) or HEK-293

[14] = biological target: Nuclear Hormone Androgen Receptor (AR) (Homo sapiens, UniProt P10275); test: SAFETYscan Nuclear Hormone Receptor assay; type: cell-based
[15] = biological target: T9, Monoamine oxidase type A (MAOA) (Homo sapiens, UniProt P21397); test: SAFETYscan Enzymatic assay; type: biochemical; conditions: Inhibitor
T9 construct: purchased Sigma-Aldrich-Merck
T9 sequence (P21397 whole entry): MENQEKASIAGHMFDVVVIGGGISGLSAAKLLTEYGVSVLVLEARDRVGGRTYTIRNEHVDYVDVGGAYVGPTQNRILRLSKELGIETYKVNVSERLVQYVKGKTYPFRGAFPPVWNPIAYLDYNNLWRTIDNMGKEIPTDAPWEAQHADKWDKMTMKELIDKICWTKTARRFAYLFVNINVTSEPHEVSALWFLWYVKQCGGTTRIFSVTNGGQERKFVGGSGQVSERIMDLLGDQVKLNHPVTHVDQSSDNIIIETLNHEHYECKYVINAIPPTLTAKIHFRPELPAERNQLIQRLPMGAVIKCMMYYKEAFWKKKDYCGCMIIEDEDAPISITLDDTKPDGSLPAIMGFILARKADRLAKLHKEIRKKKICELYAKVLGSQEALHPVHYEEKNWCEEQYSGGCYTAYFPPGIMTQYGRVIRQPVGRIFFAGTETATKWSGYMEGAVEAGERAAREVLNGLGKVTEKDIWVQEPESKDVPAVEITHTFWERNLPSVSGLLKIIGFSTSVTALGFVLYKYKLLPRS

[16] = biological target: T10, cAMP-specific 3′,5′-cyclic phospho-diesterase 4D2 (PDE4D2) (Homo sapiens, UniProt Q08499); test: SAFETYscan Enzymatic assay; type: biochemical; conditions: Inhibitor
T10 construct: purchased Signal Chem
T10 sequence (Q08499 303-809): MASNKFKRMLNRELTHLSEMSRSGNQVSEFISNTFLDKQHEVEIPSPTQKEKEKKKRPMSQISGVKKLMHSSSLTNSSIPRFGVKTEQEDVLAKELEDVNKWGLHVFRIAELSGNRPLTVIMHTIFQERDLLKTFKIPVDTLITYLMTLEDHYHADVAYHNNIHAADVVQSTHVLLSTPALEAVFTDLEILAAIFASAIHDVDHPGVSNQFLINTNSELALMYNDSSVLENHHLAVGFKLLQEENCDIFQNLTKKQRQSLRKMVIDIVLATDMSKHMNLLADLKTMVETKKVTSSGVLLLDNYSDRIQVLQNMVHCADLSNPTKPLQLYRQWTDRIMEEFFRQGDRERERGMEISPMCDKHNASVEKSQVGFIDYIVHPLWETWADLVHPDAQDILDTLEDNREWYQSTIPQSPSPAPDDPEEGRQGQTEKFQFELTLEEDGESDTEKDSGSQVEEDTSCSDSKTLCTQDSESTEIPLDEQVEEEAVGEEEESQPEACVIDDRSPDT

[17] = test system: neurons from the spinal cord; test: Spinal cord neuron survival; type: cell-based, rat; conditions: in the presence of HU-MCA-13; 48 h in culture
Procedure: We also examined whether HU-MCA-13 would promote the survival of neurons from the spinal cord, by counting the number of neurons remaining after 48 h in culture. From our counts we estimated that 58 ± 10% of the neurons present at 3 h after plating survived for 48 h in the presence of HU-MCA-13, compared with only 35 ± 5% for neurons cultured without HU-MCA-13.
Spinal cords were isolated from adult rats (4–6 months old), and the meninges were removed from the spinal cord. The spinal cord was then cut into small pieces and collected in cold Hibernate A (Brainbits, Springfield, IL, USA), glutamine (0.5 mM), and B27 (Invitrogen, Carlsbad, CA). Briefly, dissected pieces of adult rat spinal cord tissue were maintained in phosphate-buffered saline (PBS) without Ca^2+ and Mg^2+ and pooled together and transferred to an enzymatic dissociation media containing 20 IU/ml papain in Earle’s balanced salt solution (Worthington Biochemical, Freehold, NJ) and incubated for 30 min at 37 °C. […] Neurite outgrowth was measured and presented as mean length of a neurite (microns). To measure neuronal survival, 450 cells were counted in 10 randomly chosen microscope fields of a known area in each of the three dishes per condition using a 20× objective and phase-contrast optics. […]

[18] = biological target: Voltage-gated L-type calcium channel (CAV1.2) (Homo sapiens, UniProt Q13936); test: cell-based
[19] = 10 μM, read-out: MCA-13 Max. Responce
[20] = read-out: RC50 (the source's name)

Adenosine Receptor A2A (ADORA2A), sequence (P29274 whole entry): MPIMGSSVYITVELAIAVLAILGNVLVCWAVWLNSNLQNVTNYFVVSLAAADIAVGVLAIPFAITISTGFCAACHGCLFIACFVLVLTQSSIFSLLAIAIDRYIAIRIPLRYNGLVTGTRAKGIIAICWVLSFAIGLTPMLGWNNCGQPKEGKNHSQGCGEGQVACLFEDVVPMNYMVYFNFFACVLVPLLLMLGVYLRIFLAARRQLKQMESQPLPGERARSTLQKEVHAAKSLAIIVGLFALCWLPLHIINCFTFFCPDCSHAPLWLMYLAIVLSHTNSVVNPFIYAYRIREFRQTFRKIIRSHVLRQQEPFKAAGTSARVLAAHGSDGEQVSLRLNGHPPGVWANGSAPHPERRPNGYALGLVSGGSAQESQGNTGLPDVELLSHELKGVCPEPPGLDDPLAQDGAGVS
Adrenergic Receptor β2 (ADRB2), sequence (P07550 whole entry): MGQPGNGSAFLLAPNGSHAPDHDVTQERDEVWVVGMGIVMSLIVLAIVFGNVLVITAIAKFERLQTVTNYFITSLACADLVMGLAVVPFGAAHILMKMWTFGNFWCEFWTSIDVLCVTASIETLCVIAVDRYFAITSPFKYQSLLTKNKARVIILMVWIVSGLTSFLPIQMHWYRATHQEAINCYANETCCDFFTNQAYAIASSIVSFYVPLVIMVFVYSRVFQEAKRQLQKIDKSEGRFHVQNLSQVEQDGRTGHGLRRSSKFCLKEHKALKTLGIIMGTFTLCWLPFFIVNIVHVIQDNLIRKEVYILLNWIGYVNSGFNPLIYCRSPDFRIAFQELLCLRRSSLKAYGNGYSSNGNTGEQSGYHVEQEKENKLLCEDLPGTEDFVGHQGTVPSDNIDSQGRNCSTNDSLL

C=CCC1CCCC(CCC(=O)O)C1=C (stereo not drawn) [HU-MCA-13, 3-(3-allyl-2-methylenecyclohexyl)propanoic acid]
3.22%: inhibition at 10 µM [12, 19]
4.09%: MCA-13 Max. Responce ([1]; Antagonist)
58 ± 10%: neurons present at 3 h after plating that survived for 48 h [17]
21.6%: inhibition at 10 µM [13, 19]
1.86%: inhibition at 10 µM [15, 19]
> 10 µM: EC50 ([1]; Agonist, read-out: RC50 (the source's name)) | IC50 ([1]; Antagonist, read-out: RC50 (the source's name)) | EC50 [2] | IC50 [2] | EC50 ([3]; Agonist) | IC50 ([3]; Antagonist) | EC50 [4] | IC50 [4] | EC50 [5] | IC50 [5] | EC50 ([6]; Agonist) | IC50 ([6]; Antagonist) | EC50 [7] | IC50 [7] | EC50 [8] | IC50 [8] | EC50 [9] | IC50 [9] | IC50 ([10]; Blocker) | EC50 ([10]; Opener) | EC50 [11] | IC50 [11] | IC50 [12, 20] | IC50 [13, 20] | EC50 [14] | IC50 [14] | IC50 [15, 20] | IC50 [16, 20] | IC50 [18]
0%: MCA-13 Max. Responce ([1]; Agonist) | inhibition at 10 µM [16, 19]

Source: PMC7497641, “Neurotropic activity and safety of methylene-cycloalkylacetate (MCA) derivative 3-(3-allyl-2-methylenecyclohexyl) propanoic acid” (ACS Chemical Neuroscience, 2020)
